Test [1] concerns cultured product composed of cell masses containing hiPSC-Neuron and astrocytes derived from a human fetus. Description: Pharmacological test with anti-epileptic drugs on MEA plate (extracellular potential, raster plot, number of spikes). The test is classed as cell-based. Particulars: Before vs After drug exposure; FIGS. 6-8. As to the method:
From 22 days after cell seeding, once a week, extracellular potential data was acquired for 10 minutes using an extracellular measurement device maestro (Axion Biosystems).
(§1) That is, using maestro Pro (commercially available from Axion Biosystems), for the prepared MEA Cytoview Plate (commercially available from Axion Biosystems), the results of the extracellular potential of the cultured product 2 composed of cell masses containing hiPSC-Neuron and astrocytes derived from a human fetus, which were adhered to the well bottom 1 shown in FIG. 1 and FIG. 2, measured using maestro Pro for 10 minutes are illustrated as a raster plot 6 of FIG. 3 and a graph 7 of the number of detected spikes. […] The spontaneous firing frequency (Hz) can be detected from the number of peaks in the graph 7 per hour.
Using the plate produced in Experimental Example 1, a pharmacological test was performed using various drugs. The effect of the drug was confirmed by exposing an anti-epileptic drug having a function of inhibiting nerve firing to a sample. The evaluated drugs were Carbamazepine, Phenytoin, and Zonisamide, and the measurement was performed under the same conditions as the measurement of the extracellular potential data of Experimental Example 1.
A graph of a raster plot that visualizes the firing state and the number of detected. spikes for each drug is shown for Carbamazepine in FIG. 6, Phenytoin in FIG. 7, and Zonisamide in FIG. 8. Before in the drawings indicates before drug exposure, and After indicates after drug exposure. In all of the drugs, it was observed that the spontaneous firing frequency that could be detected from the number of spikes after drug exposure was reduced, and the mode in which that firing activity of the nerve was reduced after drug exposure was confirmed. That is, it was observed that the plate of this example could be used for detection in the pharmacological test using various drugs.

For test [2] the test system is unchanged. Description: Evaluation of electrophysiological neurotoxicity of test compound: firing frequency response on MEA plate. The test is classed as cell-based. Particulars: spontaneous firing frequency before exposure 200 Hz or more per 16 electrodes; compared with 4 times or more at 4 to <100 Hz; FIG. 10. As for the experimental part:
A multi-electrode array (MEA) plate was prepared as a cell-containing container which is a cell-containing structure of the present embodiment.
As a plate used for the MEA plate, CytoView MEA Plate (commercially available from Axion Biosystems) having 6×8 wells (a total of 48 wells) and a micro electrode array on the well bottom was used. […]
In the main test, the action potential of neurons adhered onto a micro electrode 3 arranged on the well bottom as shown in FIG. 1 was measured as an extracellular potential, and the neurotoxicity was evaluated from the change in extracellular potential when the test compound was treated. […]
as §1, with “[…]. […]” for “hour.”

Turning to `NC(=O)N1c2ccccc2C=Cc2ccccc21` [Carbamazepine], the “spontaneous firing frequency detected from the number of spikes after drug exposure” value (from here on “spontaneous firing frequency detected”) in test [1] is given as “reduced”.
Turning to `Nc1ccncc1` [4-AP], in test [2], the “response rate to the test compound (firing frequency after exposure)” value was “about half that”.
As for `CC[C@@H]1C(=O)OC[C@@H]1Cc1cncn1C` [Pilocarpine], the “response rate to the test compound (firing frequency after exposure)” value in test [2] is “about half that”.
As for `O=C1NC(=O)C(c2ccccc2)(c2ccccc2)N1` [Phenytoin], the “spontaneous firing frequency detected” value in test [1] is reported as “reduced”.
Take `NS(=O)(=O)Cc1noc2ccccc12` [Zonisamide]: in test [1], the “spontaneous firing frequency detected” value is listed as “reduced”.

Values taken from patent US12698473B2, “Cell-containing structure” (Ricoh Company, Ltd., priority 2021, dated 2026).
